The target in experiment [1] is Disintegrin and metalloproteinase domain-containing protein 17 (Homo sapiens, UniProt P78536). The experiment is described as follows: exosite inhibitors of ADAM17, dose response, biochemical (AID 743260).
Experiment [2] can be described thus: inhibition of ADAM10 peptide cleavage – biochemical, FRET peptide substrate, recombinant human ADAM10, selectivity assay for ADAM17 exosite inhibitor project, dose response (AID 743259).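 Note: ADAM10 enzyme cleaving a FRET peptide substrate.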
For experiment [3], the target named is T1, Rac GTPase-activating protein 1 (Homo sapiens, UniProt Q9H0H5).
T1 sequence (Q9H0H5 whole entry): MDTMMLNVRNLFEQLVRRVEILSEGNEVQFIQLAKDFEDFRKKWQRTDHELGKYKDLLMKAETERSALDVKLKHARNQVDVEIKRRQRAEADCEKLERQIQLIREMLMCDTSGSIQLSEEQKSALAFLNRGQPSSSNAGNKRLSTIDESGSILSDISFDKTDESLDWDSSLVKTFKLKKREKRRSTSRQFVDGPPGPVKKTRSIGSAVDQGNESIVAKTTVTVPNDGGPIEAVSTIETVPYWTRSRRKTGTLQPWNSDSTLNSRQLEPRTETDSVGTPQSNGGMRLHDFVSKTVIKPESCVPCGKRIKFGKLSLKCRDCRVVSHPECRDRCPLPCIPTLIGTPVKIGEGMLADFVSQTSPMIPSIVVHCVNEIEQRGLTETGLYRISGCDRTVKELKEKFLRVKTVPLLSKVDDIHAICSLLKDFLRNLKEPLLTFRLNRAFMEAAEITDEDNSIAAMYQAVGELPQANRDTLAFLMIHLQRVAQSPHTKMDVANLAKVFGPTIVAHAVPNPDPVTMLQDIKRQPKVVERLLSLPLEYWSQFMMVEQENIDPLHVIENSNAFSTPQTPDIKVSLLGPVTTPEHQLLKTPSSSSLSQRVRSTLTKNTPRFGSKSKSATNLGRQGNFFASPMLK
Briefly: blockers of MgcRacGAP-driven Rac1 GTP hydrolysis – biochemical, ADP Hunter fluorescence, primary and confirmatory, confirmation (AID 624330). Type of experiment: functional.

The nature of experiment [4]: rescue of ΔF508 CFTR function, airway epithelium – human bronchial epithelial cells, plate reader, cherry-pick, two tests, dose response (AID 743267). It counts as functional, cell-based.
Experiment [5] is described as follows: viability loss in THP-1 monocytes – THP-1 cells, cytotoxicity control for Vif-APOBEC3G degradation inhibitor project, dose response (AID 1117359). Type of experiment: functional. The conditions noted are these: THP-1.
For experiment [6], the target named is Endoplasmic reticulum aminopeptidase 1 (Homo sapiens, UniProt Q9NZ08). The experiment is described as follows: inhibition of human ERAP1 enzyme activity – biochemical, cherry-pick, set 2, plate reader, dose response (AID 743314).
Experiment [7] deals with Cryptococcus neoformans. Briefly: PubChem AID 686997. Type of experiment: functional, organism-based.
The subject of experiment [8] is Cryptococcus neoformans. The experiment is described as follows: Cryptococcus growth inhibition by alamar blue – cell lysis, cherry-picks, replicate tests, mechanism study for C. neoformans antifungal project, dose response (AID 686999). It counts as functional, organism-based. A general note: The colour change of resazurin is a common sign of viable cells or microbes.

The next experiment deals with Beta-galactosidase (Escherichia coli, UniProt Q8VNN2). The experiment is described as follows: Dose response counterscreen for EBI2 assay utilizing the enzyme, b-galactosidase. Type of experiment: functional. On the technique in general: A counterscreen serves to expose hits that act by an unwanted route or on another target.
Experiment [9] in a line: HEK293T viability loss – cell-based, ATP luminescence, dry powder, Set6, cytotoxicity control, dose response (AID 743142). Type of experiment: functional. The conditions noted are these: HEK293.
Experiment [10] can be described thus: viability loss in A549 lung cancer cells – cell-based, CellTiter-Glo luminescence, dry powder, set 3, cytotoxicity control, dose response (AID 743146). It counts as functional. Background: Cellular ATP, detected with luciferase, serves as a proxy for viable cell number.

The structures appear in SMILES notation. Calls of active or inactive are those of the source.

Chain of Disintegrin and metalloproteinase domain-containing protein 17 (P78536 whole entry, the tested form may be a part): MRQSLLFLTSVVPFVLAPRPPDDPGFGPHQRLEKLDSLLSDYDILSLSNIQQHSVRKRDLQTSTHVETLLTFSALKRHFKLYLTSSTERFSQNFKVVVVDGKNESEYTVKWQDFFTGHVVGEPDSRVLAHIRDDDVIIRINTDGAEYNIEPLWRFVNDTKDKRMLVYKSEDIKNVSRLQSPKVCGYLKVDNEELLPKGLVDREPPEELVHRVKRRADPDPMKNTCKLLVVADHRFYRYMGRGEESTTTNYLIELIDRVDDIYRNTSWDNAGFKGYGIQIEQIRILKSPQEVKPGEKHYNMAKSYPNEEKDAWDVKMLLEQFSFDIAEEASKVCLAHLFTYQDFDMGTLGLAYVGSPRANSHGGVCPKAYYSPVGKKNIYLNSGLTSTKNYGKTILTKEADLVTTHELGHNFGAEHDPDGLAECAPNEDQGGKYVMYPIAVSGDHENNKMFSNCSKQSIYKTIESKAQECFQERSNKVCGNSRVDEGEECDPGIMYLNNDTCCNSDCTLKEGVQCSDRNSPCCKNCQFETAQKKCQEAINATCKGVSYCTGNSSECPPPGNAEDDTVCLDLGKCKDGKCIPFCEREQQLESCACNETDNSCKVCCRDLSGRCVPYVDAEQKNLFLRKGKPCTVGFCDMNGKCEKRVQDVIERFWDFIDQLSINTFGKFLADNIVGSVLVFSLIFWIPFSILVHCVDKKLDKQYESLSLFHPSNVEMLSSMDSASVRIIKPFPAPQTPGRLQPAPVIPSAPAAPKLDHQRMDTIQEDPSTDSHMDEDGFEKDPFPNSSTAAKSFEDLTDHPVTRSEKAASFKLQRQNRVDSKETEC
Chain of Beta-galactosidase (Q8VNN2 whole entry): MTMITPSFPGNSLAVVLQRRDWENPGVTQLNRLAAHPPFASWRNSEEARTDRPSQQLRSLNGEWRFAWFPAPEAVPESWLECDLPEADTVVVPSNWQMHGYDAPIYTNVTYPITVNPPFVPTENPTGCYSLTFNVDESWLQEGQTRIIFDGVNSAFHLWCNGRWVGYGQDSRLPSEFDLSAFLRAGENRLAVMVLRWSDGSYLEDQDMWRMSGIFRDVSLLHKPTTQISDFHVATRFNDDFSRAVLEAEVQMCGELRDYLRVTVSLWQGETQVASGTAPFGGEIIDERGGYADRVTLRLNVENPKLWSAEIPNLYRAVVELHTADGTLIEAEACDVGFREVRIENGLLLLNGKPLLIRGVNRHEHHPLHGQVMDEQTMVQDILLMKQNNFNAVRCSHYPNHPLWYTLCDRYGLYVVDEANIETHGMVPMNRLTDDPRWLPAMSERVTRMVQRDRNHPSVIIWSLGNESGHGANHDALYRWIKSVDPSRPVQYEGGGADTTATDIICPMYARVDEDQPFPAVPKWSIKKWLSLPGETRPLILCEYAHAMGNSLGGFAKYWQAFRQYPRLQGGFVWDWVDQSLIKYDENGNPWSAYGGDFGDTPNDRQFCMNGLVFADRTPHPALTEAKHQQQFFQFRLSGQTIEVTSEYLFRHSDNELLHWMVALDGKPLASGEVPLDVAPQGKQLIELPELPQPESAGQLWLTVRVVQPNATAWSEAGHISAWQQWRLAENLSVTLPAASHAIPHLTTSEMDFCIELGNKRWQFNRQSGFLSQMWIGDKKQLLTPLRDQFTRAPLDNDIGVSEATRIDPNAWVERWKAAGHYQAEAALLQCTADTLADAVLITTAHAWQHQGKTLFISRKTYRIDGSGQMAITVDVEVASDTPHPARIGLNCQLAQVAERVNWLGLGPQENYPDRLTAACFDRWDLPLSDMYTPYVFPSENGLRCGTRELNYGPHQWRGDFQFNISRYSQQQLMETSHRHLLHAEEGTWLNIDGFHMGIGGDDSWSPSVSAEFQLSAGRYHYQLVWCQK
Chain of Endoplasmic reticulum aminopeptidase 1 (Q9NZ08 whole entry): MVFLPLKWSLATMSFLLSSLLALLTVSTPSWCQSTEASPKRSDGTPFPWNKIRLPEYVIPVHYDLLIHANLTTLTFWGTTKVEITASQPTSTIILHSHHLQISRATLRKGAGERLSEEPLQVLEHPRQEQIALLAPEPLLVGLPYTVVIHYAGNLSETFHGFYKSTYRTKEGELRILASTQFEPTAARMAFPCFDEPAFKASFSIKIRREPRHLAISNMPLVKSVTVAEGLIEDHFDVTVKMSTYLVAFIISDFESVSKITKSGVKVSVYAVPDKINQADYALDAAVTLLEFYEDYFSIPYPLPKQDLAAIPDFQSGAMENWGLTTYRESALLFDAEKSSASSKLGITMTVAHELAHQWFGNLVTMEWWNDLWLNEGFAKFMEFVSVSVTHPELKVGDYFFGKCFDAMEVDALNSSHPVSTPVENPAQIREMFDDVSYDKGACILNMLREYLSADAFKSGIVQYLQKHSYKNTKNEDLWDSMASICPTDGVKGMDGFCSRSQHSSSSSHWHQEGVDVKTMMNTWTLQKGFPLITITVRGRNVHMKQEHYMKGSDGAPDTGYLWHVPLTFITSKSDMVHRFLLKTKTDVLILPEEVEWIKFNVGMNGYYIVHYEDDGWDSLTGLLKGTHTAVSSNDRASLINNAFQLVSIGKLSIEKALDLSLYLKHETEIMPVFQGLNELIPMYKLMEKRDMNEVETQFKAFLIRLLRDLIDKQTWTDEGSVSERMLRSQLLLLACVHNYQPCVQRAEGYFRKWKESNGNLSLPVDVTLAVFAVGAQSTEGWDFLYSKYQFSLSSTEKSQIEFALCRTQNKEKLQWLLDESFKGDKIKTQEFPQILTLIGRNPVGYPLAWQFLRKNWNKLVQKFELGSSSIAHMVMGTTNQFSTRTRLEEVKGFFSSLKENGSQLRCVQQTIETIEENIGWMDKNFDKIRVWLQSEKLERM

For orientation: IC50 means the concentration that inhibits the measured activity by half. For `CCOC(=O)CC(SP1(=S)OCC2(CCCCO2)C(C2CCCCO2)O1)C(=O)OCC` (stereo unspecified), the IC50 was 32.8 µM (inactive) in experiment [1] and 56.3 µM (inactive) in experiment [2].
The AC50 is the midpoint of the concentration-response curve, whichever way the signal moves. What is called CC50 is the concentration that lowers cell viability or growth by half. `C=CC/N=c1\scc(C)n1/N=C/c1ccc(O)c(O)c1`: the 50% inhibitory concentration (IC50) in experiment [3] was 17.4 µM (active). Also, the AC50 in [4] was 50 µM (active). The CC50 in experiment [5] was 19.8 µM (active).
As to `CC1CCN(Cc2cc(=O)oc3cc(O)c(Cl)cc23)CC1`, in experiment [6], the half-maximal activity concentration (AC50) was 6.33 µM (active).
For the compound `COC(=O)C1=C(C)N(Cc2ccccc2)C(=S)NC1c1ccc(Br)cc1` (stereo unspecified), the AC50 is 25 µM (active) in the experiment with Cryptococcus neoformans [7] and 35 µM (active) in the experiment with Cryptococcus neoformans [8].
On to `COc1ccccc1N1CCN(C(=O)c2cc3c(s2)-c2ccccc2OC3)CC1`, for which the IC50 at Beta-galactosidase was > 80 µM (inactive).
As to `O=C(CCNC(=O)c1cccc(Cl)c1)N[C@@H]1CCCc2ccccc21`, the concentration at half-maximal activity (AC50) in experiment [9] was 9.96 µM (active); in experiment [10], > 52 µM (inactive).

Source of the values: ChEMBL document CHEMBL1201862, “PubChem BioAssay data set” (2004).
